This is an account of results in patent US9676704B2, “Pesticidal compositions and processes related thereto” (Dow AgroSciences LLC, priority 2014, dated 2017).

Like-named read-outs stand apart in the source and are kept apart here.

One series deals with Cabbage Looper (CL). As to the kind of experiment: Bioassays on CL, 128-well diet tray assay. Format: in vivo. The following applies: Trichoplusia ni; for mortality at 50 µg/cm2: 168 h, read-out: CL % Control (or Mortality) rating. Summed up:
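Second-instar larvae, one to five per well, were placed on artificial diet treated with 50 μg/cm^2 compound (in 90:10 acetone-water) and dried, with eight wells per compound. Trays were held at 25° C, 14:10 light-dark, for five to seven days. Percent mortality was scored per well and averaged.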

The next series has as its system Green Peach Aphid (GPA). In words: Bioassays on Green Peach Aphid, cabbage seedling foliar spray. Format: in vivo. The following applies: Myzus persicae, 72 h, read-out: GPA % Control (or Mortality) rating. The protocol:
Cabbage seedlings grown in 3-inch pots, with 2-3 small (3-5 cm) true leaves, were used as test substrate. The seedlings were infested with 20-50 GPA (wingless adult and nymph stages) one day prior to chemical application. Four pots with individual seedlings were used for each treatment. Test compounds (2 mg) were dissolved in 2 mL of acetone/MeOH (1:1) solvent, forming stock solutions of 1000 ppm test compound. The stock solutions were diluted 5× with 0.025% Tween 20 in water to obtain the solution at 200 ppm test compound. A hand-held aspirator-type sprayer was used for spraying a solution to both sides of […] leaves until runoff. Reference plants (solvent check) were sprayed with the diluent only containing 20% by volume of acetone/MeOH (1:1) solvent. Treated plants were held in a holding room for three days at approximately 25° C. and ambient relative humidity (RH) prior to grading. Evaluation was conducted by counting the number of live aphids per plant under a microscope. Percent Control was measured by using Abbott's correction formula (W. S. Abbott, “A Method of Computing the Effectiveness of an Insecticide” J. Econ. Entomol. 18 (1925), pp. 265-267) as follows. Corrected % Control=100*(X−Y)/X where X=No. of live aphids on solvent check plants and Y=No. of live aphids on treated plants. The results are indicated in the table entitled “Table ABC: Assay Results (F)” and “Table ABCD: Assay Results (C)” (See Table Section).

The subject of another series is Beet Armyworm (BAW). As to the kind of experiment: Bioassays on BAW, 128-well diet tray assay. Format: in vivo. The following applies: Spodoptera exigua; for mortality at 50 µg/cm2: 168 h, read-out: BAW % Control (or Mortality) rating. Summed up:
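Test compound was applied at 50 μg/cm^2 in 90:10 acetone-water to the artificial diet surface and dried, with eight wells per compound. One to five second-instar beet armyworm larvae were placed per well and held at 25 °C, 14:10 light-dark, for five to seven days. Percent mortality was averaged over the wells.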

The test system of series [1] is Yellow Fever Mosquito (YFM). Format: in vivo, Aedes aegypti. Conditions: 15 μL of diluted 4000 ppm master solution per well, about 1 day-old larvae, 3 days. The procedure:
Master plates containing 400 μg of a molecule dissolved in 100 μL of dimethyl sulfoxide (DMSO) (equivalent to a 4000 ppm solution) are used. A master plate of assembled molecules contains 15 μL per well. To this plate, 135 μL of a 90:10 water:acetone mixture is added to each well. A robot (Biomek® NXP Laboratory Automation Workstation) is programmed to dispense 15 μL aspirations from the master plate into an empty 96-well shallow plate (“daughter” plate). There are 6 reps (“daughter” plates) created per master. The created daughter plates are then immediately infested with YFM larvae. The day before plates are to be treated, mosquito eggs are placed in Millipore water containing liver powder to begin hatching (4 g. into 400 mL). After the daughter plates are created using the robot, they are infested with 220 μL of the liver powder/larval mosquito mixture (about 1 day-old larvae). After plates are infested with mosquito larvae, a non-evaporative lid is used to cover the plate to reduce drying. Plates are held at room temperature for 3 days prior to grading. After 3 days, each well is observed and scored based on mortality. The results are indicated in the table entitled “Table ABC: Assay Results (F)” and “Table ABCD: Assay Results (C)” (See Table Section). Pesticidally Acceptable Acid Addition Salts, Salt Derivatives, Solvates, Ester Derivatives, Polymorphs, Isotopes and Radionuclides

The mark [2] stands for this setting: 50 μg/cm^2 on artificial diet, second instar larvae, five to seven days, 25° C.
The mark [3] stands for this setting: 200 ppm foliar spray on cabbage seedlings, three days, Abbott corrected % control.

Turning to `C[C@H](NC(=O)CC[S+](C)[O-])NC(=O)c1ccc(/C=C/C(c2cc(Cl)c(Cl)c(Cl)c2)C(F)(F)F)cc1C(F)(F)F` (stereo partly drawn) [Compound P49, N-((1R)-1-(3-(methylsulfinyl)propanamido)ethyl)-4-((E)-4,4,4-trifluoro-3-(3,4,5-trichlorophenyl)but-1-en-1-yl)-2-(trifluoromethyl)benzamide], the mortality at 50 µg/cm2 in the series on Cabbage Looper (CL) (setting [2]) and in the series on Beet Armyworm (BAW) (setting [2]) was 50 to 100% in each case. Besides, in the series on Green Peach Aphid (GPA) (setting [3]), the mortality (usually the share of the test organisms that died) at 200 ppm fell in the range of 0 to 80%.
With `CN(CCNC(=O)c1ccc(/C=C/C(c2cc(Cl)c(Cl)c(Cl)c2)C(F)(F)F)cc1C(F)(F)F)C(=O)OC(C)(C)C` (centres unmarked) [Compound C113, (E)-tert-butyl methyl(2-(4-(4,4,4-trifluoro-3-(3,4,5-trichlorophenyl)but-1-en-1-yl)-2-(trifluoromethyl)benzamido)ethyl)carbamate], the mortality at 50 µg/cm2 in the series on Cabbage Looper (CL) and in the series on Beet Armyworm (BAW) was 50 to 100% in each case. In series [1], the “YFM % Control (or Mortality) rating” value is reported as “A (80-100)”. Further, in the series with Green Peach Aphid (GPA) (foliar), the mortality at 200 ppm came to 0%.
Consider `C[C@H](NC(=O)CC(F)(F)F)NC(=O)c1ccc(/C=C/C(c2cc(Cl)c(Cl)c(Cl)c2)C(F)(F)F)cc1C(F)(F)F` (stereo partly drawn) [Compound F2, 4-((E)-4,4,4-trifluoro-3-(3,4,5-trichlorophenyl)but-1-en-1-yl)-2-(trifluoromethyl)-N—((R)-1-(3,3,3-trifluoropropanamido)ethyl)benzamide], for which the mortality at 50 µg/cm2 with Cabbage Looper (CL) (setting [2]) and with Beet Armyworm (BAW) (setting [2]) was 50 to 100% each time. Also, the mortality at 0.05 µg/cm2 with Cabbage Looper (CL) (0.05 μg/cm^2, read-out: CL Percent control (or mortality)) came to 100%; in the series on Beet Armyworm (BAW) (0.05 μg/cm^2, read-out: BAW Percent control (or mortality)) it was 100%. Also, the mortality at 0.5 µg/cm2 turned out to be 100% in the series on Cabbage Looper (CL) (0.5 μg/cm^2, read-out: CL Percent control (or mortality)) and 100% in the series with Beet Armyworm (BAW) (0.5 μg/cm^2, read-out: BAW Percent control (or mortality)). For the same compound, the mortality at 5 µg/cm2 in the series on Cabbage Looper (CL) (5 μg/cm^2, read-out: CL Percent control (or mortality)) turned out to be 100%; in the series on Beet Armyworm (BAW) (5 μg/cm^2, read-out: BAW Percent control (or mortality)), 100%. Besides, the “YFM % Control (or Mortality) rating” value in series [1] is “A (80-100)”. In the series on Green Peach Aphid (GPA) (setting [3]), the mortality at 200 ppm was 0%.
Consider `C[C@H](NC(=O)C[S+](C)[O-])NC(=O)c1ccc(/C=C/C(c2cc(Cl)c(Cl)c(Cl)c2)C(F)(F)F)cc1C(F)(F)F` (stereo partly drawn) [Compound P36, N-((1S)-1-(2-(Methylsulfinyl)acetamido)ethyl)-4-((E)-4,4,4-trifluoro-3-(3,4,5-trichlorophenyl)but-1-en-1-yl)-2-(trifluoromethyl)benzamide], for which the mortality at 50 µg/cm2 in the series on Cabbage Looper (CL) (setting [2]) and in the series with Beet Armyworm (BAW) (setting [2]) was 50 to 100% each time. The mortality at 200 ppm in the series with Green Peach Aphid (GPA) (setting [3]) came to 0%.
With `CC(C)CC(=O)N[C@@H](C)NC(=O)c1ccc(/C=C/C(c2cc(Cl)c(Cl)c(Cl)c2)C(F)(F)F)cc1C(F)(F)F` (stereo partly drawn) [Compound F6, N—((R)-1-(3-Methylbutanamido)ethyl)-4-((E)-4,4,4-trifluoro-3-(3,4,5-trichlorophenyl)but-1-en-1-yl)-2-(trifluoromethyl)benzamide], the mortality at 50 µg/cm2 with Cabbage Looper (CL) (setting [2]) and with Beet Armyworm (BAW) (setting [2]) was 50 to 100% throughout. Besides, the “YFM % Control (or Mortality) rating” value in series [1] is listed as “A (80-100)”.
On to `CN(NC(=O)c1ccc(/C=C/C(c2cc(Cl)c(Cl)c(Cl)c2)C(F)(F)F)cc1C(F)(F)F)C(=O)OC(C)(C)C` (centres unmarked) [Compound C116, (E)-tert-butyl 1-methyl-2-(4-(4,4,4-trifluoro-3-(3,4,5-trichlorophenyl)but-1-en-1-yl)-2-(trifluoromethyl)benzoyl)hydrazinecarboxylate], for which the mortality at 50 µg/cm2 in the series with Cabbage Looper (CL) and in the series with Beet Armyworm (BAW) was 50 to 100% throughout. The “YFM % Control (or Mortality) rating” value in series [1] is “A (80-100)”.
For the compound `Cc1cc(/C=C/C(c2cc(Cl)c(F)c(Cl)c2)C(F)(F)F)ccc1C(=O)N[C@H](C)NC(=O)CC(F)(F)F` (stereo partly drawn) [Compound P5, 4-((E)-3-(3,5-Dichloro-4-fluorophenyl)-4,4,4-trifluorobut-1-en-1-yl)-2-methyl-N—((R)-1-(3,3,3-trifluoropropanamido)ethyl)benzamide], the mortality at 50 µg/cm2 in the series with Cabbage Looper (CL) (setting [2]) and with Beet Armyworm (BAW) (setting [2]) was 50 to 100% throughout. Further, the “YFM % Control (or Mortality) rating” value in series [1] is “A (80-100)”.
Take `Cc1cc(/C=C/C(c2cc(Cl)c(F)c(Cl)c2)C(F)(F)F)ccc1C(=O)N[C@H](C)NC(=O)CCC(F)(F)F` (stereo partly drawn) [Compound P13, 4-((E)-3-(3,5-Dichloro-4-fluorophenyl)-4,4,4-trifluorobut-1-en-1-yl)-2-methyl-N—((R)-1-(4,4,4-trifluorobutanamido)ethyl)benzamide]: the mortality at 50 µg/cm2 in the series with Cabbage Looper (CL) (setting [2]) and in the series on Beet Armyworm (BAW) (setting [2]) was 50 to 100% in each case. Moreover, the “YFM % Control (or Mortality) rating” value in series [1] is “A (80-100)”.
Turning to `CN(NC(=O)c1ccc(/C=C/C(c2cc(Cl)c(Cl)c(Cl)c2)C(F)(F)F)cc1C(F)(F)F)C(=O)CCC(F)(F)F` (centres unmarked) [Compound F23, (E)-N′-Methyl-4-(4,4,4-trifluoro-3-(3,4,5-trichlorophenyl)but-1-en-1-yl)-N′-(4,4,4-trifluorobutanoyl)-2-(trifluoromethyl)benzohydrazide], the mortality at 50 µg/cm2 with Cabbage Looper (CL) (setting [2]) and in the series on Beet Armyworm (BAW) (setting [2]) was 50 to 100% each time. In addition, the “YFM % Control (or Mortality) rating” value in series [1] is on record as “A (80-100)”.
Consider `C[C@@H](NC(=O)c1ccc(/C=C/C(c2cc(Cl)c(Cl)c(Cl)c2)C(F)(F)F)cc1C(F)(F)F)NC(=O)C1CC1` (stereo partly drawn) [Compound F7, N—((R)-1-(Cyclopropanecarboxamido)ethyl)-4-((E)-4,4,4-trifluoro-3-(3,4,5-trichlorophenyl)but-1-en-1-yl)-2-(trifluoromethyl)benzamide], for which the mortality at 50 µg/cm2 in the series with Cabbage Looper (CL) (setting [2]) and with Beet Armyworm (BAW) (setting [2]) was 50 to 100% throughout. Also, the “YFM % Control (or Mortality) rating” value in series [1] was “A (80-100)”.
Consider `Cc1cc(/C=C/C(c2cc(Br)c(Cl)c(Br)c2)C(F)(F)F)ccc1C(=O)N[C@H](C)NC(=O)CCC(F)(F)F` (stereo partly drawn) [Compound P14, 4-((E)-3-(3,5-Dibromo-4-chlorophenyl)-4,4,4-trifluorobut-1-en-1-yl)-2-methyl-N—((R)-1-(4,4,4-trifluorobutanamido)ethyl)benzamide], for which the mortality at 50 µg/cm2 in the series with Cabbage Looper (CL) (setting [2]) and in the series on Beet Armyworm (BAW) (setting [2]) was 50 to 100% throughout. Further, the “YFM % Control (or Mortality) rating” value in series [1] is “A (80-100)”.
